Experiments:
[1] = target: T1, orexin-2 receptor (Homo sapiens, UniProt O43614); test: Orexin-2 receptor antagonism (statement); conditions: orally active
T1 sequence (O43614 1-444): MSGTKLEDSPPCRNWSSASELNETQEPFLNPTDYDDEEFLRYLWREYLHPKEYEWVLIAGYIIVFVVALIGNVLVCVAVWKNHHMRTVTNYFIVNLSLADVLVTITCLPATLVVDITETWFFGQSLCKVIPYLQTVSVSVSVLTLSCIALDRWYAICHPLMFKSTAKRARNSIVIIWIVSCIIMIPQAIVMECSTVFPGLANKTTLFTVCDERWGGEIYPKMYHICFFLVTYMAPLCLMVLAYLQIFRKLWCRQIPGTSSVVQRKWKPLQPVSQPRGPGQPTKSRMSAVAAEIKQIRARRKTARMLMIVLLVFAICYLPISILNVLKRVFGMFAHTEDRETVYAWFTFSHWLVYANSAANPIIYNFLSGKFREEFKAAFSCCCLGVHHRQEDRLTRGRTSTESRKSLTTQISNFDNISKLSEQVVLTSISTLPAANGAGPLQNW

[2] = Plasma pharmacokinetics after single 20 mg oral dose of suspension or tablet formulation (Example 1); type: in vivo, Human
Experimental: This example was performed to determine the plasma pharmacokinetic (PK) and bioavailability of a solid dose formulation of [5(4,6-dimethyl-pyrimidin-2-yl)-hexahydro-pyrrolo[3,4-c]pyrrol-2-yl]-(2-fluoro-2-[1,2,3]triazol-2-yl-phenyl)-methanone (Compound A) after single dose tablet administration relative to a suspension formulation. Also addressed are the effect of a semi-fasted condition on the rate and extent of bioavailability of the solid dose formulation and tolerability of the solid and oral suspension formulations.
During each treatment period, blood samples were collected for PK measurements. Specifically, venous blood samples of 3 mL each were collected for determination of Compound plasma concentrations. The following plasma Compound A PK parameters were estimated using the actual times of blood sampling: • Cmax peak plasma concentration. • tmax time to reach the peak plasma concentration. • AUClast area under the plasma concentration-time curve from 0 to t hours post study drug dosing, calculated by trapezoidal summation (time t is the time of the last quantifiable concentration Clast). • AUC∞ AUClast extrapolated to infinity, calculated as AUClast+Clast/λz. • λz elimination rate constant, determined by linear regression of the terminal points of the ln-linear plasma concentration-time curve. • t1/2 terminal half-life, defined as 0.693/λz. • CL/F total clearance of drug after extravascular administration, uncorrected for absolute bioavailability, calculated as Dose/AUC∞. • Vd/F apparent volume of distribution after extravascular administration, uncorrected for absolute bioavailability.
Samples were prepared for testing using the following protocol: • (i) Plasma samples at room temperature were homogenized. • (ii) The samples were centrifuged for 5 minutes at about 2500×g and 20° C. • (iii) The plasma sample (50.0 μL) was pipetted into a 1.2 mL round well collection plate. • (iv) Stock Dilution Solvent (50.0 μL) was added to the blanks and the internal standard working solution was added to all other tube. […]

[5(4,6-dimethyl-pyrimidin-2-yl)-hexahydro-pyrrolo[3,4-c]pyrrol-2-yl]-(2-fluoro-2-[1,2,3]triazol-2-yl-phenyl)-methanone [Compound A]
activity at orexin-2 receptor [1]: selective antagonist
mean t1/2 ([2]; 20 mg oral suspension, fasted): ~2 h
mean t1/2 ([2]; 20 mg tablet, fasting condition): ~5 h
mean t1/2 ([2]; 20 mg tablet, semi-fasted): ~2 h

From patent publication US12201634B2, “Methods of treating depression using orexin-2 receptor antagonists” (Janssen Pharmaceutica NV, priority 2016, dated 2025)
